Marks after values point to notes of the source that are not given here.
How the values were obtained:
[1] = tested on: RIP-deficient Jurkat cells; assay: Cell survival assay, TNFα-induced apoptosis; format: cell-based, human; details: for % Survival: 10 ng/mL TNFα, 24 h
Method: The ability of RLip-EA-OH to prevent apoptosis and promote cell survival was assessed using Jurkat cells deficient in Receptor-Interacting Protein (RIP), a cell death mediating protein. The Jurkat cell line is derived from human T-Lymphocytes. RIP-deficient Jurkat cells are susceptible to apoptosis when treated with tumor necrosis factor alpha (TNFα). These cells were treated with either vehicle or RLip-EA-OH and then apoptosis was triggered with TNFα. Cell survival was assessed to evaluate if RLip-EA-OH protected the cells against TNFα induced apoptosis.
RIP-deficient Jurkat cells were seeded into 96 well plates at 20,000 cells per well and treated for 2 hours with RLip-EA-OH (6 wells for each concentration) or DMSO. After pretreatment, 3 wells for each dose of drug were exposed to 10 ng/mL human recombinant TNFα (TNFα was not added to the other 3 wells). Twenty four hours after TNFα treatment, ATP cell viability was determined (CellTiter-Glo, Promega) and the values were used to calculate % survival of the cells.

IGF1R = IGF1R (Homo sapiens, UniProt P08069); assay: IGF1R tyrosine kinase activation assay (mobility shift); format: biochemical
Source text: IGF1R and Src tyrosine kinases have endogenous levels of activity in the presence of ATP and substrate. This activity was readily measured using a mobility shift assay using a Caliper LabChip® 3000 and a 12-sipper LabChip® to detect both phosphorylated and unphosphorylated substrate (Caliper Life Sciences, Discovery Alliances and Services Division). Enzyme, substrate and ATP concentrations were optimized for each assay. For the IGF1R assay, the final concentrations of the enzyme, peptide and ATP were 20 nM, 1.5 μM, and 1220 μM, respectively. For the Src assay, the final concentrations of the enzyme, peptide and ATP were 2.5 nM, 1.5 μM, and 17 μM, respectively.
RLip-EA-OH was evaluated at multiple concentrations for an effect on activation of IGF1 receptor kinase (IGF1R) and Src. The compounds tested activated IGF1R and Src with different selectivities.

[2] = tested on: myocardial ischemia-reperfusion injury; assay: Rat model of myocardial I/R injury (MI/AR ratio); format: in vivo; details: for % Reduction in MI/AR Compared to Vehicle: rat IV
[3] = tested on: myocardial ischemia-reperfusion injury; assay: Rat model of myocardial I/R injury (MI/AR ratio); format: in vivo; details: for % Reduction in MI/AR Compared to Vehicle: rat IV; remark: listed apart in the source
Source text: A rat model of myocardial I/R injury was used as an in vivo screen to determine if certain lipoic acid derivative compounds are cardio-protective (e.g., against mycoardial ischemia-reperfusion injury). This model is analogous to the ischemia-reperfusion injury observed in cardiac patients following coronary occlusions and cardiac surgery procedures, such as coronary artery bypass grafting (CABG) (Matsui, T., Tao, J., del Monte, F., Lee, K.-H. et al., Akt Activation Preserves Cardiac Function and Prevents Injury After Transient Cardiac Ischemia In vivo, Circulation 2001, 104:330).
The circumflex branch of the left coronary artery was ligated temporarily to induce regional ischemia in the left ventricular mass, followed by the injection of fluorescent microspheres to delineate the ischemic region. The animals were sacrificed about 24 hours after reperfusion and the hearts were excised, sectioned and stained with triphenyltetrazolium. The direct impact of the pharmacologic intervention was determined by measuring the myocardial infarct area (MI), the ischemic area at risk (AR) and the left ventricular area (LV). The reduction of MI over the AR (MI/AR ratio) was used as the primary measure of drug efficacy relative to vehicle controls.
Male Sprague-Dawley rats between 300 and 350 gm were used for these experiments. Anesthesia was induced with 3-4% isoflurane in an induction chamber. After induction, anesthesia was maintained at a surgical plane with 1.5-2.0% isoflurane, administered by a Rodent Ventilator through a 16-gauge angiocatheter introduced orally into the trachea. The ventilator was set at 2.5 cc at a rate of 60-65 breaths per minute to maintain ventilation during surgery. The core temperature of the animal was monitored and maintained at 37° C. using a rectal probe and a heating lamp attached to a temperature controller.
A left anterior thoracotomy was performed and the heart was exposed using a vertical pericardotomy. The circumflex branch of the left coronary artery (LCx) was ligated approximately 4 mm from the aorta using a cardiovascular 7.0 monofilament suture on an 11 mm needle to induce ischemia in the left ventricle.
Fluorescent microspheres (300 μL) were injected into the left ventricular cavity 10-20 minutes after the ligation to delineate the ischemic area. The suture was removed 30 minutes after ligation to reperfuse the ischemic area and the ischemic area was checked for reperfusion.
The chest was then closed in layers using absorbable suture (Dexon 5-0) for the muscle layers and monofilament Nylon 5-0 suture was used to close the cutaneous layer. The animals were allowed to recover, then were returned to the colony.
Twenty-four hours after reperfusion, anesthesia was induced using ketamine hydrochloride and the chest was opened. The animals were sacrificed with 15% potassium chloride aqueous solution (w/v) injected into the LV cavity to arrest the heart in diastole. The heart was excised distal to the aortic valve and washed with saline to remove the blood. Sagittal slices of the heart were obtained between the base of the ventricle and the apex. Five slices of heart tissue were obtained, each 2 mm thick. The slices were immersed in a 1% 2,3,5-triphenyl-2H-tetrazolium chloride (TTC) in saline solution and then stored in the dark for 30 minutes to stain.
Images of the slices were obtained under bright field (to observe the TTC staining) and under fluorescence (to observe the microspheres). The area at risk was determined by the absence of microspheres and the infarct area was determined by the absence of TTC staining.
In vivo experiments employing a rat model of myocardial I/R injury were performed as described in Example 8. Catheterized (jugular vein) rats were used for intravenous dose administration at time points prior to and/or including 0.25 h.

Chain of IGF1R (P08069 959-1367 limits assumed, species assumed): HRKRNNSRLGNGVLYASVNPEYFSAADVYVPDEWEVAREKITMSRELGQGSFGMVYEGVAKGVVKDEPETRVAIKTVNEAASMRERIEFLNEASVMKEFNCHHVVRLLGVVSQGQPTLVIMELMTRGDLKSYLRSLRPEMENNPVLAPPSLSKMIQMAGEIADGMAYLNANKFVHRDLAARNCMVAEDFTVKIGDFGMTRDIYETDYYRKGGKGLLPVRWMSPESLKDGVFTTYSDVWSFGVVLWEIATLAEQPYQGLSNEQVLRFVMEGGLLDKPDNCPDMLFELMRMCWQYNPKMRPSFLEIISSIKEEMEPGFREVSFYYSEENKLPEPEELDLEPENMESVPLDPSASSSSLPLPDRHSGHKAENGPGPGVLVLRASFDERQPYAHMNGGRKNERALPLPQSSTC

C[C@H](NC(=O)[C@H](CCC(=O)O)NC(=O)CCCC[C@@H]1CCSS1)C(=O)O [RLip-EA-OH, N-(R)-lipoyl-L-glutamyl-L- alanine]
% Survival ([1]; 0.006 μM): 84% | % Survival ([1]; 0.012 μM): 95% | % Survival ([1]; 0.05 μM): 96% | % Survival ([1]; 0.1 μM): 98% | % Survival ([1]; 0.2 μM): 101% | % Survival ([1]; 1.5 μM): 106% | effect on TNFα induced cell death ([1]; RIP-deficient Jurkat cells): prevented TNFα induced cell death in a dose dependent manner | IGF1R % activity above control (±SEM) (IGF1R; 100 μM): 42 ± 1% | IGF1R % Increase in activity above vehicle control (IGF1R; 300 μM): 33 ± 3% | efficacy in a rat model of I/R injury ([2]; intravenously (bolus IV and infusion), orally and intra-cardiac): efficacious | % Reduction in MI/AR Compared to Vehicle ([2]; Entry 1: 1 mg/kg at −0.25 h): 3% | % Reduction in MI/AR Compared to Vehicle ([2]; Entry 2a: 3 mg/kg (bolus) at −0.25 h): 6% | % Reduction in MI/AR Compared to Vehicle ([2]; Entry 3a: 5 mg/kg (bolus) at −0.25 h): 27* % | % Reduction in MI/AR Compared to Vehicle ([2]; Entry 3b: 5 mg/kg (1 h infusion) at −1 h): 27* % | % Reduction in MI/AR Compared to Vehicle ([2]; Entry 4a: 10 mg/kg (bolus) at −0.25 h): 33* % | % Reduction in MI/AR Compared to Vehicle ([2]; Entry 4b: 10 mg/kg (1 h infusion)): 33* % | % Reduction in MI/AR Compared to Vehicle ([2]; Entry 6: 20 mg/kg at −0.25 h): 9% | % Reduction in MI/AR Compared to Vehicle ([2]; Entry 8: 10 mg/kg at −6 h): 24* % | % Reduction in MI/AR Compared to Vehicle ([2]; Entry 9: 10 mg/kg at −24 h): 24* % | % Reduction in MI/AR Compared to Vehicle ([2]; Entry 10: 20 mg/kg at −3 h): 26* % | % Reduction in MI/AR Compared to Vehicle ([2]; Entry 11: 40 mg/kg at −3 h): 17% | % Reduction in MI/AR Compared to Vehicle ([2]; Entry 14: 10 and 10 mg/kg at −24 and −3 h): 32* % | % Reduction in MI/AR Compared to Vehicle ([2]; Entry 15: 10 and 10 and 10 mg/kg at −24 and −3 and −0.25 h): 42* % | % Reduction in MI/AR Compared to Vehicle ([2]; Entry 17: 10 and 10 mg/kg at −3 h and at reperfusion): 34* % | reduction of myocardial tissue death vs saline vehicle ([2]; rat, 1 mg/kg IC, 15 minutes pre-occlusion): 38% | Reduction of MI:AR Ratio Relative to Vehicle (%) ([2]; rat, 1 mg/kg IC, Table 7 meta analysis): 31 ± 3 % | Reduction of MI:AR Ratio Relative to Vehicle (%) ([2]; rat, 1 mg/kg IC, Table 8): 31 ± 3 % | reduction of myocardial tissue death vs saline vehicle ([2]; rat, 1 mg/kg IC, at reperfusion (within 1 minute after reperfusion)): 32% | reduction of myocardial tissue death vs saline vehicle ([2]; rat, 1 mg/kg IC, during occlusion (15 minutes after occluding)): 24% | MI:AR ratio ([2]; rat, 1 mg/kg IC, meta analysis n=64): 0.250 | reduction of MI/AR vs saline vehicle ([2]; rat, 1 mg/kg IC, meta analysis n=64 vs n=54, p<0.001): 33% | MI/AR ([2]; rat, 1 mg/kg single bolus IC 15 minutes prior to ischemia): 0.337 | MI/AR ([2]; rat, 2 mg/kg single bolus IC 15 minutes prior to ischemia): 0.290 | MI/AR (meta-analysis) ([2]; rat, B—Single (10_0)): 0.261 | MI/AR (meta-analysis) ([2]; rat, C—Multiple (10_10)): 0.207 | effect of different doses on myocardial tissue death (MI/AR) ([2]; rat, IV or IC, 15 minutes pre-occlusion): significantly (p<0.05) reduced myocardial tissue death and was dose dependent | % Reduction in MI/AR compared to vehicle controls ([2]; rat, Table 11: 10 mg/kg at −0.25 h): 28% | % Reduction in MI/AR compared to vehicle controls ([2]; rat, Table 11: 10 and 10 mg/kg at −3 and −0.25 h): 43* % | reduction in MI damage ([2]; rat, single 10 mg/kg IV bolus 15 min before ischemia or at 3 h before ischemia): ~33% | reduction of MI (meta-analysis) ([2]; rat, single bolus dose 10 mg/kg at −3 h): 29% | % Reduction in MI/AR Compared to Vehicle ([3]; Entry 2b: 3 mg/kg (1 h infusion) at −1 h): 12% | % Reduction in MI/AR Compared to Vehicle ([3]; Entry 5: 15 mg/kg at −0.25 h): 30* % | % Reduction in MI/AR Compared to Vehicle ([3]; Entry 7: 10 mg/kg at −3 h): 33* % | % Reduction in MI/AR Compared to Vehicle ([3]; Entry 12: 10 and 10 mg/kg at −3 and −0.25 h): 43* % | % Reduction in MI/AR Compared to Vehicle ([3]; Entry 13: 20 and 10 mg/kg at −3 and −0.25 h): 38* % | % Reduction in MI/AR Compared to Vehicle ([3]; Entry 16: 10 and 10 and 10 mg/kg at −3 and −0.25 h and at reperfusion): 15% | % Reduction in MI/AR compared to vehicle controls ([3]; rat, Table 11: 10 mg/kg at −3 h): 29% | reduction of MI (meta-analysis) ([3]; rat, multiple dosing 10 mg/kg at −3 h and −0.25 h): 43%
